Assay results: paper PMC7023430, “4-Aminobenzoic Acid Derivatives: Converting Folate Precursor to Antimicrobial and Cytotoxic Agents” (Biomolecules, 2019)
In brackets after ≈: the same amount, converted by molar mass. Like-named read-outs stand apart in the source and are kept apart here.

Legend:
eight fungal strains = assay: Antifungal activity; assay type: cell-based; details: statement over the fungal panel; time not stated
Method: (§1) The antifungal properties were evaluated against five yeast strains, namely: Candida albicans ATCC 44859, Candida tropicalis 156, Candida krusei […], Candida glabrata 20/I, Trichosporon […] 1188 and three strains of filamentous fungi: Aspergillus fumigatus 231, Lichtheimia corymbifera 272, and Trichophyton interdigitale 445. A microdilution broth method was performed according to EUCAST II, III instructions with slight modifications. Briefly, tested compounds were dissolved in DMSO and diluted in a twofold manner with RPMI-1640 medium with L-glutamine, supplemented with 2% glucose (w/v) and buffered to pH 7.0 with 3 morpholinopropane-1-sulfonic acid (all components were purchased from Sigma-Aldrich, USA). […] Positive controls consisted of test microbe solely, while negative controls consisted of medium and DMSO. Internal quality control was included too. Visual inspection was used for MIC endpoints evaluation. The experiments were conducted in duplicates. For the results to be valid, the difference in MIC determined from two parallel measurements must not be greater than one step on the dilution scale. PABA and triazole antimycotic drug fluconazole were involved as the reference compounds.

[1] = system: Mycobacterium avium 330/88; assay: Antimycobacterial micromethod in Šula's medium, M. avium; assay type: cell-based
[2] = system: Mtb. 331/88 and three non-tuberculous mycobacterial strains; assay: Antimycobacterial activity; assay type: cell-based; details: statement over four mycobacterial strains; time not stated
[3] = system: Candida albicans ATCC 44859; assay: Antifungal microdilution broth method, C. albicans; assay type: cell-based
Method: as §1

[4] = system: M. kansasii 6509/96 (clinical isolate); assay: Antimycobacterial micromethod in Šula's medium, M. kansasii 6509/96; assay type: cell-based; details: Mycobacterium kansasii
Candida glabrata 20/I = assay: Antifungal microdilution broth method, C. glabrata; assay type: cell-based; details: Nakaseomyces glabratus
Method: as §1

Candida tropicalis 156 = assay: Antifungal microdilution broth method, C. tropicalis; assay type: cell-based
Method: as §1

Trichosporon asahii 1188 = assay: Antifungal microdilution broth method, T. asahii; assay type: cell-based
Method: as §1

[5] = system: Escherichia coli ATCC 25922, CCM 3954; assay: Antibacterial microdilution broth method, E. coli; assay type: cell-based; details: Escherichia coli
[6] = system: ESBL-positive Klebsiella pneumoniae J 14368/08
[7] = system: Mycobacterium tuberculosis H37Rv (331/88); assay: Antimycobacterial micromethod in Šula's medium, M. tuberculosis; assay type: cell-based
[8] = system: Lichtheimia corymbifera 272; assay: Antifungal microdilution broth method, L. corymbifera; assay type: cell-based
Method: as §1

[9] = system: Enterococcus faecalis ATCC 29212, CCM 4224; assay: Antibacterial microdilution broth method, E. faecalis; assay type: cell-based; details: Enterococcus faecalis
[10] = system: Mycobacterium kansasii 235/80; assay: Antimycobacterial micromethod in Šula's medium, M. kansasii 235/80; assay type: cell-based
[11] = system: Klebsiella pneumoniae D 11750/08; assay: Antibacterial microdilution broth method, K. pneumoniae; details: K. pneumoniae D 11750/08; for MIC KP 24 h: 24 h incubation; for MIC KP 48 h: 48 h incubation
[12] = system: Pseudomonas aeruginosa ATCC 27853, CCM 3955; assay: Antibacterial microdilution broth method, P. aeruginosa; assay type: cell-based; details: Pseudomonas aeruginosa, P. aeruginosa
[13] = system: methicillin-resistant Staphylococcus aureus ATCC 43300, CCM 4750 (MRSA); assay: Antibacterial microdilution broth method, MRSA; assay type: cell-based; details: Staphylococcus aureus
Candida krusei E28 = assay: Antifungal microdilution broth method, C. krusei; assay type: cell-based; details: Pichia kudriavzevii
Method: as §1

[14] = system: Staphylococcus aureus ATCC 29213, CCM 4223; assay: Antibacterial microdilution broth method, S. aureus; assay type: cell-based
[15] = system: Staphylococcus epidermidis H 6966/08; assay: Antibacterial microdilution broth method, S. epidermidis; assay type: cell-based; details: Staphylococcus epidermidis, H6966/08, S. epidermidis
[16] = system: Aspergillus fumigatus 231; assay: Antifungal microdilution broth method, A. fumigatus; assay type: cell-based
Method: as §1

[17] = system: four Gram-positive and four Gram-negative strains; assay: Antibacterial activity; assay type: cell-based; details: statement over the bacterial panel; time not stated
[18] = system: Trichophyton interdigitale 445; assay: Antifungal microdilution broth method, T. interdigitale; assay type: cell-based
Method: as §1

staphylococci = details: according to EUCAST ref 33; cited from earlier work
[19] = 330/88, 336 h, 14 days incubation at 37 °C, read-out: MIC M. avium 330/88 14 d
[20] = 330/88, 504 h, 21 days incubation at 37 °C, read-out: MIC M. avium 330/88 21 d
[21] = ATCC44859, 24 h, read-out: MIC CA 24 h
[22] = ATCC44859, 48 h, read-out: MIC CA 48 h
[23] = 168 h, 7 days incubation at 37 °C, read-out: MIC M. kansasii 6509/96 7 d
[24] = 336 h, 14 days incubation at 37 °C, read-out: MIC M. kansasii 6509/96 14 d
[25] = 504 h, 21 days incubation at 37 °C, read-out: MIC M. kansasii 6509/96 21 d
[26] = 24 h incubation, read-out: MIC EC 24 h
[27] = 48 h incubation, read-out: MIC EC 48 h
[28] = 336 h, 14 days incubation at 37 °C, read-out: MIC Mtb. 331/88 14 d
[29] = 504 h, 21 days incubation at 37 °C, read-out: MIC Mtb. 331/88 21 d
[30] = 24 h incubation, read-out: MIC EF 24 h
[31] = 48 h incubation, read-out: MIC EF 48 h
[32] = 235/80, 168 h, 7 days incubation at 37 °C, read-out: MIC M. kansasii 235/80 7 d
[33] = 235/80, 336 h, 14 days incubation at 37 °C, read-out: MIC M. kansasii 235/80 14 d
[34] = 235/80, 504 h, 21 days incubation at 37 °C, read-out: MIC M. kansasii 235/80 21 d
[35] = 24 h incubation, read-out: MIC PA 24 h
[36] = 48 h incubation, read-out: MIC PA 48 h
[37] = 24 h incubation, read-out: MIC MRSA 24 h
[38] = 48 h incubation, read-out: MIC MRSA 48 h
[39] = 24 h incubation, read-out: MIC SA 24 h
[40] = 48 h incubation, read-out: MIC SA 48 h
[41] = 24 h incubation, read-out: MIC SE 24 h
[42] = 48 h incubation, read-out: MIC SE 48 h

COc1ccccc1C=Nc1ccc(C(=O)O)cc1 [1s, 4-[(2-Methoxybenzylidene)amino]benzoic acid]
MIC, antifungal activity (eight fungal strains): no antimycotic potency
MIC [1, 19]: > 1000 µM
MIC [1, 20]: > 1000 µM
MIC, antimycobacterial activity [2]: only negligible antimycobacterial activity
MIC [3, 21]: > 500 µM
MIC [3, 22]: > 500 µM
MIC [4, 23]: 1000 µM (≈ 255 µg/mL)
MIC [4, 24]: 1000 µM (≈ 255 µg/mL)
MIC [4, 25]: 1000 µM (≈ 255 µg/mL)
MIC (Candida glabrata 20/I; 24 h, read-out: MIC CG 24 h): > 500 µM
MIC (Candida glabrata 20/I; 48 h, read-out: MIC CG 48 h): > 500 µM
MIC (Candida tropicalis 156; 24 h, read-out: MIC CT 24 h): > 500 µM
MIC (Candida tropicalis 156; 48 h, read-out: MIC CT 48 h): > 500 µM
MIC (Trichosporon asahii 1188; 24 h, read-out: MIC TA 24 h): > 500 µM
MIC (Trichosporon asahii 1188; 48 h, read-out: MIC TA 48 h): > 500 µM
MIC [5, 26]: > 500 µM
MIC [5, 27]: > 500 µM
MIC KP-E 24 h [6]: >500 µM
MIC KP-E 48 h [6]: >500 µM
MIC [7, 28]: 1000 µM (≈ 255 µg/mL)
MIC [7, 29]: 1000 µM (≈ 255 µg/mL)
MIC ([8]; 24 h, read-out: MIC LC 24 h): > 500 µM
MIC ([8]; 48 h, read-out: MIC LC 48 h): > 500 µM
MIC [9, 30]: > 500 µM
MIC [9, 31]: > 500 µM
MIC [10, 32]: 1000 µM (≈ 255 µg/mL)
MIC [10, 33]: 1000 µM (≈ 255 µg/mL)
MIC [10, 34]: > 1000 µM
MIC KP 24 h [11]: >500 µM
MIC KP 48 h [11]: >500 µM
MIC [12, 35]: > 500 µM
MIC [12, 36]: > 500 µM
MIC [13, 37]: > 500 µM
MIC [13, 38]: > 500 µM
MIC (Candida krusei E28; 24 h, read-out: MIC CK 24 h): > 500 µM
MIC (Candida krusei E28; 48 h, read-out: MIC CK 48 h): > 500 µM
MIC [14, 39]: > 500 µM
MIC [14, 40]: > 500 µM
MIC [15, 41]: > 500 µM
MIC [15, 42]: > 500 µM
MIC ([16]; 24 h, read-out: MIC AF 24 h): > 500 µM
MIC ([16]; 48 h, read-out: MIC AF 48 h): > 500 µM
MIC, antibacterial activity [17]: avoided any antibacterial action
MIC ([18]; 72 h, read-out: MIC TI 72 h): > 500 µM
MIC ([18]; 120 h, read-out: MIC TI 120 h): > 500 µM

O=C(O)c1ccc(N=Cc2ccc(O)cc2)cc1 [1t, 4-[(4-Hydroxybenzylidene)amino]benzoic acid]
MIC, antifungal activity (eight fungal strains): no antimycotic potency
MIC [1, 19]: 1000 µM (≈ 241 µg/mL)
MIC [1, 20]: > 1000 µM
MIC, antimycobacterial activity [2]: only negligible antimycobacterial activity
MIC [3, 21]: > 500 µM
MIC [3, 22]: > 500 µM
MIC [4, 23]: 1000 µM (≈ 241 µg/mL)
MIC [4, 24]: 1000 µM (≈ 241 µg/mL)
MIC [4, 25]: 1000 µM (≈ 241 µg/mL)
MIC (Candida glabrata 20/I; 24 h, read-out: MIC CG 24 h): > 500 µM
MIC (Candida glabrata 20/I; 48 h, read-out: MIC CG 48 h): > 500 µM
MIC (Candida tropicalis 156; 24 h, read-out: MIC CT 24 h): > 500 µM
MIC (Candida tropicalis 156; 48 h, read-out: MIC CT 48 h): > 500 µM
MIC (Trichosporon asahii 1188; 24 h, read-out: MIC TA 24 h): > 500 µM
MIC (Trichosporon asahii 1188; 48 h, read-out: MIC TA 48 h): > 500 µM
MIC [5, 26]: > 500 µM
MIC [5, 27]: > 500 µM
MIC KP-E 24 h [6]: >500 µM
MIC KP-E 48 h [6]: >500 µM
MIC [7, 28]: 1000 µM (≈ 241 µg/mL)
MIC [7, 29]: 1000 µM (≈ 241 µg/mL)
MIC ([8]; 24 h, read-out: MIC LC 24 h): > 500 µM
MIC ([8]; 48 h, read-out: MIC LC 48 h): > 500 µM
MIC [9, 30]: > 500 µM
MIC [9, 31]: > 500 µM
MIC [10, 32]: 1000 µM (≈ 241 µg/mL)
MIC [10, 33]: 1000 µM (≈ 241 µg/mL)
MIC [10, 34]: > 1000 µM
MIC KP 24 h [11]: >500 µM
MIC KP 48 h [11]: >500 µM
MIC [12, 35]: > 500 µM
MIC [12, 36]: > 500 µM
MIC [13, 37]: > 500 µM
MIC [13, 38]: > 500 µM
MIC (Candida krusei E28; 24 h, read-out: MIC CK 24 h): > 500 µM
MIC (Candida krusei E28; 48 h, read-out: MIC CK 48 h): > 500 µM
MIC [14, 39]: > 500 µM
MIC [14, 40]: > 500 µM
MIC [15, 41]: > 500 µM
MIC [15, 42]: > 500 µM
MIC ([16]; 24 h, read-out: MIC AF 24 h): > 500 µM
MIC ([16]; 48 h, read-out: MIC AF 48 h): > 500 µM
MIC, antibacterial activity [17]: avoided any antibacterial action
MIC ([18]; 72 h, read-out: MIC TI 72 h): > 500 µM
MIC ([18]; 120 h, read-out: MIC TI 120 h): > 500 µM

O=C1CN(/N=C/c2ccc([N+](=O)[O-])o2)C(=O)N1 [nitrofurantoin]
breakpoint for staphylococci (staphylococci): 32 to 64 µg/mL
